# What was measured:
# Experiment in all cases: relative viability (nuclei count vs DMSO), 5 days (fraction); higher = more cells survive
# [1] = test system: PC-3 [JPC-3]
# How it was run: (§1)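 Relative viability divides the nuclei count in treated wells by that in vehicle wells. Lung cancer cell lines were seeded in 1536-well plates, dosed by pin tool the next day, and fixed and stained after 5 days in one step with final 0.05% Triton X-100, 1% formaldehyde and 1 ug/ml Hoechst. Dosing was a single drug or a fixed anchor-drug dose plus five library-drug doses (not always all listed) in √10 steps, and values are medians of duplicate plates imaged at 4×.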
# [2] = test system: NCI-H2170
# How it was run: as §1
# [3] = test system: HOP-62
# How it was run: as §1
# [4] = test system: LU99A
# How it was run: as §1
# [5] = test system: LK-2
# How it was run: as §1
# [6] = test system: EKVX
# How it was run: as §1
# [7] = test system: NCI-H3122
# How it was run: as §1
# [8] = test system: HCC-827
# How it was run: as §1
# [9] = test system: LCLC-97TM1
# How it was run: as §1
# [10] = test system: EPLC-272H
# How it was run: as §1
# [11] = test system: UMC-11
# How it was run: as §1
# [12] = test system: SW 1573
# How it was run: as §1
# [13] = test system: H3255
# How it was run: as §1
# [14] = test system: NCI-H1650
# How it was run: as §1
# [15] = test system: NCI-H2228
# How it was run: as §1
# [16] = test system: NCI-H441
# How it was run: as §1
# [17] = test system: LXF-289
# How it was run: as §1
# [18] = test system: NCI-H1355
# How it was run: as §1
# [19] = test system: NCI-H1993
# How it was run: as §1
# [20] = test system: NCI-H2405
# How it was run: as §1
# [21] = test system: ChaGo-K-1
# How it was run: as §1
# [22] = test system: SK-LU-1
# How it was run: as §1
smiles,measurement,setting,value
CCNC(=O)c1noc(-c2cc(C(C)C)c(O)cc2O)c1-c1ccc(CN2CCOCC2)cc1 [Luminespib] + CC1(C)CCC(c2ccc(Cl)cc2)=C(CN2CCN(c3ccc(C(=O)NS(=O)(=O)c4ccc(N[C@H](CCN5CCOCC5)CSc5ccccc5)c(S(=O)(=O)C(F)(F)F)c4)cc3)CC2)C1 [Navitoclax] (partner 0.5 µM),relative viability,[1]; first compound 0.002 µM,0.818
same,relative viability,[1]; first compound 0.006325 µM,0.81
same,relative viability,[1]; first compound 0.02 µM,0.648
same,relative viability,[1]; first compound 0.06325 µM,0.847
same,relative viability,[1]; first compound 0.2 µM,0.739
same,relative viability,[2]; first compound 0.002 µM,0.646
same,relative viability,[2]; first compound 0.006325 µM,0.596
same,relative viability,[2]; first compound 0.02 µM,0.293
same,relative viability,[2]; first compound 0.06325 µM,0.581
same,relative viability,[2]; first compound 0.2 µM,0.451
same,relative viability,[3]; first compound 0.002 µM,1
same,relative viability,[3]; first compound 0.006325 µM,1.07
same,relative viability,[3]; first compound 0.02 µM,1.07
same,relative viability,[3]; first compound 0.06325 µM,0.909
same,relative viability,[3]; first compound 0.2 µM,0.103
same,relative viability,[4]; first compound 0.002 µM,0.878
same,relative viability,[4]; first compound 0.006325 µM,0.815
same,relative viability,[4]; first compound 0.02 µM,0.496
same,relative viability,[4]; first compound 0.06325 µM,0.253
same,relative viability,[4]; first compound 0.2 µM,0.119
same,relative viability,[5]; first compound 0.002 µM,0.826
same,relative viability,[5]; first compound 0.006325 µM,0.936
same,relative viability,[5]; first compound 0.02 µM,0.571
same,relative viability,[5]; first compound 0.06325 µM,0.163
same,relative viability,[5]; first compound 0.2 µM,0.159
same,relative viability,[6]; first compound 0.002 µM,0.922
same,relative viability,[6]; first compound 0.006325 µM,0.801
same,relative viability,[6]; first compound 0.02 µM,0.677
same,relative viability,[6]; first compound 0.06325 µM,0.518
same,relative viability,[6]; first compound 0.2 µM,0.0817
same,relative viability,[7]; first compound 0.002 µM,1.03
same,relative viability,[7]; first compound 0.006325 µM,0.956
same,relative viability,[7]; first compound 0.02 µM,1.05
same,relative viability,[7]; first compound 0.06325 µM,0.919
same,relative viability,[7]; first compound 0.2 µM,0.196
same,relative viability,[8]; first compound 0.002 µM,1.07
same,relative viability,[8]; first compound 0.006325 µM,1.02
same,relative viability,[8]; first compound 0.02 µM,1.04
same,relative viability,[8]; first compound 0.06325 µM,1.01
same,relative viability,[8]; first compound 0.2 µM,1
same,relative viability,[9]; first compound 0.002 µM,0.3
same,relative viability,[9]; first compound 0.006325 µM,0.538
same,relative viability,[9]; first compound 0.02 µM,0.31
same,relative viability,[9]; first compound 0.06325 µM,0.411
same,relative viability,[9]; first compound 0.2 µM,0.338
same,relative viability,[10]; first compound 0.006325 µM,0.831
same,relative viability,[10]; first compound 0.02 µM,0.782
same,relative viability,[10]; first compound 0.06325 µM,1.11
same,relative viability,[10]; first compound 0.2 µM,1.28
same,relative viability,[11]; first compound 0.002 µM,0.305
same,relative viability,[11]; first compound 0.006325 µM,0.349
same,relative viability,[11]; first compound 0.02 µM,0.224
same,relative viability,[11]; first compound 0.06325 µM,0.148
same,relative viability,[11]; first compound 0.2 µM,0.108
same,relative viability,[12]; first compound 0.002 µM,0.927
same,relative viability,[12]; first compound 0.006325 µM,0.892
same,relative viability,[12]; first compound 0.02 µM,0.803
same,relative viability,[12]; first compound 0.06325 µM,0.0809
same,relative viability,[12]; first compound 0.2 µM,0.0666
same,relative viability,[13]; first compound 0.002 µM,0.517
same,relative viability,[13]; first compound 0.006325 µM,0.511
same,relative viability,[13]; first compound 0.02 µM,0.272
same,relative viability,[13]; first compound 0.06325 µM,0.536
same,relative viability,[13]; first compound 0.2 µM,0.112
same,relative viability,[14]; first compound 0.002 µM,1.31
same,relative viability,[14]; first compound 0.006325 µM,1.11
same,relative viability,[14]; first compound 0.02 µM,0.318
same,relative viability,[14]; first compound 0.06325 µM,0.159
same,relative viability,[14]; first compound 0.2 µM,0.144
same,relative viability,[15]; first compound 0.002 µM,0.836
same,relative viability,[15]; first compound 0.006325 µM,0.637
same,relative viability,[15]; first compound 0.02 µM,0.614
same,relative viability,[15]; first compound 0.06325 µM,0.11
same,relative viability,[15]; first compound 0.2 µM,0.144
same,relative viability,[16]; first compound 0.002 µM,0.714
same,relative viability,[16]; first compound 0.006325 µM,0.648
same,relative viability,[16]; first compound 0.02 µM,0.626
same,relative viability,[16]; first compound 0.06325 µM,0.121
same,relative viability,[16]; first compound 0.2 µM,0.161
same,relative viability,[17]; first compound 0.002 µM,0.951
same,relative viability,[17]; first compound 0.006325 µM,0.937
same,relative viability,[17]; first compound 0.02 µM,1.05
same,relative viability,[17]; first compound 0.06325 µM,0.851
same,relative viability,[17]; first compound 0.2 µM,0.302
same,relative viability,[18]; first compound 0.002 µM,0.983
same,relative viability,[18]; first compound 0.006325 µM,0.896
same,relative viability,[18]; first compound 0.02 µM,0.473
same,relative viability,[18]; first compound 0.06325 µM,0.987
same,relative viability,[18]; first compound 0.2 µM,0.968
same,relative viability,[19]; first compound 0.002 µM,0.937
same,relative viability,[19]; first compound 0.006325 µM,1.02
same,relative viability,[19]; first compound 0.02 µM,0.762
same,relative viability,[19]; first compound 0.06325 µM,0.644
same,relative viability,[19]; first compound 0.2 µM,0.466
same,relative viability,[20]; first compound 0.002 µM,0.925
same,relative viability,[20]; first compound 0.006325 µM,0.583
same,relative viability,[20]; first compound 0.02 µM,0.704
same,relative viability,[20]; first compound 0.06325 µM,0.188
same,relative viability,[20]; first compound 0.2 µM,0.143
same,relative viability,[21]; first compound 0.002 µM,1.1
same,relative viability,[21]; first compound 0.02 µM,0.932
same,relative viability,[21]; first compound 0.06325 µM,0.41
same,relative viability,[21]; first compound 0.2 µM,0.311
same,relative viability,[22]; first compound 0.002 µM,0.887
same,relative viability,[22]; first compound 0.006325 µM,0.478
same,relative viability,[22]; first compound 0.02 µM,0.505
same,relative viability,[22]; first compound 0.06325 µM,0.117
same,relative viability,[22]; first compound 0.2 µM,0.0911

# Reference: the supplement of paper PMC10307832
